{
  "source": "paper PMC12210739",
  "about": "“A sialic acid-binding protein in Toxoplasma gondii contains a conserved globular domain in apicomplexan parasites” (Parasites & Vectors, 2025)",
  "key": {"[1]": {"tested_on": "TgSABP1-6′SL-PAA interaction", "assay": "Competitive BLI assay of TgSABP1-6′SL-PAA interaction", "type": "binding, Toxoplasma gondii", "conditions": "5 μM TgSABP1; for Inhibition of binding of recombinant TgSABP1 to 6′SL-PAA: SA 5, 10, 20 mM, lactose 25, 50, 100 mM, oseltamivir phosphate 30, 60 mM", "method": "To evaluate small molecule-mediated inhibition of TgSABP1-6′SL-PAA interaction, streptavidin biosensors pre-loaded with 2.4 μM 6′SL-PAA until saturation (threshold ≥ 1.5 nm shift) were subjected to competitive binding assays on an Octet K2 system. Four test compounds were diluted to different concentrations in PBST-BSA, including SA (5, 10, and 20 mM), lactose (25, 50, and 100 mM), oseltamivir phosphate (30 and 60 mM), and eltrombopag (5 and 50 μM). The His-tagged TgSABP1 protein was diluted to 5 μM with different concentrations of compounds and incubated for 15 min at room temperature. The competition binding test included equilibration for 90 s in the compound solution, association for 60–180 s in the pre-treated protein solution, dissociation for 60–90 s in the compound solution, and regeneration [3 × 20 s pulses in HCl (pH 1.0) followed by PBS neutralization]. Data parameters were analyzed by ForteBio Data Analysis software (v 9.0.0.14) using the average reference sensors’ subtraction method and 1:1 binding model. All experiments were repeated in triplicate."}, "[2]": {"tested_on": "T. gondii RH-RFP tachyzoites", "assay": "Intra-vacuolar proliferation (parasites per vacuole)", "type": "cell-based, Toxoplasma gondii", "method": "(§1) The anti-invasive activity of eltrombopag against T. gondii was assessed using a fluorescence-based invasion assay with modifications to the established protocols. Toxoplasma gondii RH strains stably expressing red fluorescence protein were added to 2 × 10^5 Vero cells (multiplicity of infection [MOI] of 1:1) pre-treated with the drug or the equivalent volume of DMSO for 1 h. One hour after the parasites were added, the parasites were removed and the cells were gently washed with PBS three times, then incubated with DMEM containing 2% FBS. After 16 h of cultivation, the cells were fixed with 4% PFA and stained with DAPI (Beyotime, Shanghai, China). The numbers of parasitophorous vacuoles (PVs) and host cells were counted in a total of 20 randomly selected fields under a fluorescence microscope (Leica DM4B, Wetzlar, Germany). Invasion efficiency = (number of PVs/number of DAPI^+ cells) × 100%. Meanwhile, the number of parasites in each vacuole was determined. Seventy vacuoles from each coverslip were counted across at least three biological replicates. Intra-vacuolar proliferation was expressed as the mean number of parasites per PV."}, "T. gondii": {"tested_on": "T. gondii", "assay": "Anti-parasite activity in vivo"}, "[3]": {"tested_on": "T. gondii RH-RFP tachyzoites", "assay": "T. gondii host cell invasion assay in Vero cells", "type": "cell-based", "conditions": "Toxoplasma gondii", "method": "as §1"}},
  "data": [
    {"smiles": "OC[C@H]1O[C@@H](O[C@H]2[C@H](O)[C@@H](O)C(O)O[C@@H]2CO)[C@H](O)[C@@H](O)[C@H]1O", "note": "(mixture of isomers) [lactose]", "values": [
      {"measurement": "Inhibition of binding of recombinant TgSABP1 to 6′SL-PAA", "setting": "[1]", "value": "did not"}
    ]},
    {"smiles": "CC(=O)N[C@H]1[C@H]([C@H](O)[C@H](O)CO)OC(O)(C(=O)O)C[C@@H]1O", "note": "(some centres unmarked) [SA, sialic acid]", "values": [
      {"measurement": "Inhibition of binding of recombinant TgSABP1 to 6′SL-PAA", "setting": "[1]", "value": "exhibited the inhibition on the binding of recombinant TgSABP1 to 6′SL-PAA in a concentration-dependent manner"}
    ]},
    {"smiles": "CC1=NN(c2ccc(C)c(C)c2)C(=O)/C1=N\\Nc1cccc(-c2cccc(C(=O)O)c2)c1O", "note": "[eltrombopag]", "values": [
      {"measurement": "Blocking of binding of recombinant TgSABP1 to 6′SL-PAA", "setting": "[1]; 50 μM compound", "value": "significantly blocked"},
      {"measurement": "Intracellular parasite replication", "setting": "[2]; 10 μM", "value": "without affecting intracellular parasite replication"},
      {"measurement": "Replication of invaded parasites", "setting": "[2]; 20 μM, vs DMSO control", "value": "significantly impaired"},
      {"measurement": "Anti-parasite activity in vivo", "setting": "T. gondii", "value": "did not show any anti-parasite activity in vivo"},
      {"measurement": "inhibition at 10 µM", "setting": "[3]; 10 μM, vs DMSO control, read-out: Inhibition rate of host cell invasion", "value": 47.8, "unit": "%"},
      {"measurement": "inhibition at 20 µM", "setting": "[3]; 20 μM, vs DMSO control, read-out: Inhibition rate of host cell invasion", "value": 57.7, "unit": "%"},
      {"measurement": "IC50", "setting": "[3]; calculated, read-out: IC50 for anti-invasion of T. gondii", "value": 11.6, "unit": "µM"}
    ]},
    {"smiles": "CCOC(=O)C1=C[C@@H](OC(CC)CC)[C@H](NC(C)=O)[C@@H](N)C1", "note": "[oseltamivir phosphate]", "values": [
      {"measurement": "Inhibition of binding of recombinant TgSABP1 to 6′SL-PAA", "setting": "[1]", "value": "dose-dependent inhibition"},
      {"measurement": "Blocking of binding of recombinant TgSABP1 to 6′SL-PAA", "setting": "[1]; 60 mM compound", "value": "significantly blocked"}
    ]}
  ]
}
